Columns and labels:
[1] = target: T1, H2 histamine GPCR (Homo sapiens, UniProt P25021); test: Radioligand binding assay, H2 receptor (transfected CHO cells); details: antagonist 1 μM
T1 construct: host or cells: CHO cells
Procedure: (§1) Binding assays were conducted to evaluate the affinity of test compounds IEM-1460 and IEM-1925 (Eurofins Scientific, Inc.) for 15 targets: the human alpha-1 adrenergic (A1) receptor, histaminergic (H)-2 and−3 receptors, and muscarinic acetylcholine receptors-1 to−5 in transfected CHO cells by radioligand binding. The neuronal α4β2 and neuronal α7 cholinergic acetylcholine receptors were tested in transfected SH-SY5Y cells. The histaminergic-1 and−4 receptors were tested in transfected HEK-293 cells. Ion channel testing for AMPA and N-methyl-D-aspartate (NMDA) was performed in cells from the rat cerebral cortex. […] Non-specific binding was determined in the presence of 1 μM of DCPX. […] The filters were dried and then counted for radioactivity in a scintillation counter (Topcount, Packard) using a scintillation cocktail (Microscint 0, Packard). The results are expressed as a percent inhibition of the control radioligand specific binding: 100-[(measured specific binding)/(control specific binding) × 100]. […]
(§2) We tested the metabolic stability of the compounds with in vitro liver microsome stability assays (Table 1, right). […] We evaluated the compounds for potential toxicity with assays that test for inhibition of off-target ion channels and receptors. […]

[2] = target: T2, H4 histamine GPCR (Homo sapiens, UniProt Q9H3N8); test: Radioligand binding assay, H4 receptor (transfected HEK-293 cells); details: antagonist 1 μM
T2 construct: host or cells: HEK-293 cells
Procedure: as §1, §2

[3] = In vitro microsomal stability assay, human; assay type: in vitro ADME; details: pH 7.4; human liver microsomes, 1 μM compound, 37°C; read-out: Half-life (min) Mean (N = 2)
Procedure: The stability of IEM-1460 in the presence of guinea pig liver microsomes (BioIVT, PN: X008070) or IEM-1925 in the presence of human (BioIVT, PN: M00101), mouse, or guinea pig liver microsomes was evaluated (Paraza Pharma, Inc., Montreal, Quebec, Canada). Both IEM-1925 and IEM-1460 were incubated with microsomes at 37°C for a total of 45 min. Working solutions were prepared in 100 mM potassium phosphate buffer and the final reaction was performed at pH 7.4 in 100 mM potassium phosphate buffer containing 0.5 mg/mL liver microsomal protein. Phase I metabolism was assessed by adding NADPH to a final concentration of 1 mM and collecting samples at time points 0, 5, 15, 30, and 45 min. All collected samples were quenched 1:1 with ice-cold stop solution (1 μM labetalol and 1 μM glyburide in acetonitrile) and centrifuged to remove precipitated protein. […] Samples were analyzed by LC-MS/MS using a Thermo Vanquish UPLC and a Thermo Quantis triple quadrupole mass spectrometer. […] Reference compounds were also assessed to ensure accuracy and precision of experimental protocol: imipramine and verapamil for human liver microsomes, diphenhydramine and verapamil for mouse liver microsomes, and warfarin and verapamil for guinea pig liver microsomes. […] Half-life was determined from a plot of the natural logarithm of the peak area ratio (remaining compound peak area/internal standard peak area) against time. […]

[4] = test system: non-pyramidal cells (expressing mainly GluA2-lacking CP-AMPARs); design: method as in Tikhonov et al., 2000; details: 2000, cited from earlier work; for IC50: rat hippocampus ref Tikhonov et al.; for apparent selectivity for CP- over CI-AMPARs: ref Tikhonov et al.

T2 sequence (Q9H3N8 whole entry): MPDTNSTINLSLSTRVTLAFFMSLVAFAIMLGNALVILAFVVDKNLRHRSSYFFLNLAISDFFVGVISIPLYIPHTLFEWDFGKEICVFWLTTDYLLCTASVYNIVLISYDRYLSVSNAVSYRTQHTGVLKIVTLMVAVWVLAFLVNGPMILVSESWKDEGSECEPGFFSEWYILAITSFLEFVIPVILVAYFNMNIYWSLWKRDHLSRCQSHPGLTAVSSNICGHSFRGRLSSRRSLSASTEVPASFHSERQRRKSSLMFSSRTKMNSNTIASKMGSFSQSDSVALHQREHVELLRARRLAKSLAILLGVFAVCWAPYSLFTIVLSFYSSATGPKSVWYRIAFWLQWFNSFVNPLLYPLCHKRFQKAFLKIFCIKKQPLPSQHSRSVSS
T1 sequence (P25021 whole entry): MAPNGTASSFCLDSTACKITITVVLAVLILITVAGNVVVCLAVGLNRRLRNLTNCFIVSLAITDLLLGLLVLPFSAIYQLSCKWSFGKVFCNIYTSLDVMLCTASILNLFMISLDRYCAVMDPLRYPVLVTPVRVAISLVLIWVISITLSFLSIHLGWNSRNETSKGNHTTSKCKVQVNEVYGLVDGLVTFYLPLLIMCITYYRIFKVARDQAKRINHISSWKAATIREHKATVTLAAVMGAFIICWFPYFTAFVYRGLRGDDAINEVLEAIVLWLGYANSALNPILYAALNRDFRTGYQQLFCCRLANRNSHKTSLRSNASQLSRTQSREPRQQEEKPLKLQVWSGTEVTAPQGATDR

## C[N+](C)(C)CCCCCNCC12CC3CC(CC(C3)C1)C2 [IEM-1460]
[1]
  Mean% inhibition (N = 2) of radioligand binding: <1%
[2]
  Mean% inhibition (N = 2) of radioligand binding: <1%
[3]
  half-life at 1 μM: > 300 min
[4]
  IC50: ~3000 nM
  apparent selectivity for CP- over CI-AMPARs: ~ 300 fold

## NCCCCCNC1(c2ccccc2)CCCCC1 [IEM-1925]
[1]
  Mean% inhibition (N = 2) of radioligand binding: <1%
[2]
  Mean% inhibition (N = 2) of radioligand binding: <5%
[3]
  half-life at 1 μM: > 300 min
[4]
  IC50: ~1000 nM
  apparent selectivity for CP- over CI-AMPARs: ~ 300 fold

— PMC8287724, “Reducing Auditory Nerve Excitability by Acute Antagonism of Ca^2+-Permeable AMPA Receptors” (Frontiers in Synaptic Neuroscience, 2021)
